The values that follow come from US9994617B2, “Modulation of structured polypeptide specificity” (BICYCLE THERAPEUTICS LIMITED, priority 2011, dated 2018).

In data set [1] the target is human plasma kallikrein (hPK) (Homo sapiens, UniProt P03952). The data set is described as follows: Enzyme inhibition assay, human plasma kallikrein.
Data set [2] is described as follows: Quantitative plasma stability, method 3 (LC/MS), rat plasma. To be noted: determined quantitatively by LC/MS, read-out: rat plasma halflife (converted). In kind it is in vitro ADME. How it is done:
To obtain plasma stability quantitatively, peptide stock solutions (1 mM in DMSO) were shipped to Biofocus, UK, who performed the analysis. Peptides were diluted to 100 uM with water, and diluted 1:20 in plasma (5 uM final concentration, with the plasma at 95%), sampled as appropriate, precipitated as above, and quantified using a Waters Xevo TQ-MS.

The target of data set [3] is rat plasma kallikrein (rPK) (Rattus norvegicus, UniProt P14272). Briefly: Enzyme inhibition assay, rat plasma kallikrein.
The next data set deals with Human factor XIa (hfXIa) (Homo sapiens, UniProt P03951). The data set is described as follows: Inhibition of paralogous protease factor XIa. Type of data set: biochemical. To be noted: highest concentration tested (100 μM). As for the experimental part:
(§1) The target specificity of the isolated bicyclic peptide inhibitors was assessed by determining the inhibition of trypsin-like human serine proteases of the class S1A which comprises 79 members (Yousef, et al, Biochem Biophys Res Commun 2003, 305 (1), 28-36). The panel of proteases included hfXIa which shares the highest sequence identity with hPK (69%) as well as the structurally less related but vital human serine proteases thrombin (36%), plasmin (34% sequence identity with hPK) and factor XIIa (35%).

Data set [4] concerns the target T1, Human factor XIIa (hfXIIa) (Homo sapiens, UniProt P00748).
T1 sequence (P00748 373-615 limits assumed): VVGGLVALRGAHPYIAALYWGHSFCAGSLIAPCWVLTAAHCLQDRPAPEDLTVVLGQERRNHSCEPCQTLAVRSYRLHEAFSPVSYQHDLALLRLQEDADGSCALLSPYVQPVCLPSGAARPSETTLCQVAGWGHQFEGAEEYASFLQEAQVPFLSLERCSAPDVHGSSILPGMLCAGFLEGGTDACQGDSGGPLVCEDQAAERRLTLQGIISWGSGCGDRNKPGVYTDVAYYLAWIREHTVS
Briefly: Inhibition of paralogous protease factor XIIa. In kind it is biochemical. The settings on record: for inhibition of factor XIIa: highest concentration tested (100 μM). As for the experimental part: as §1

Another data set has as its target Human thrombin (Homo sapiens, UniProt P00734). Briefly: Inhibition of paralogous protease thrombin. Type of data set: biochemical. The settings on record: for inhibition of thrombin: highest concentration tested (100 μM). How it is done:
as §1

A further data set concerns the target Human plasmin (Homo sapiens, UniProt P00747). The data set is described as follows: Inhibition of paralogous protease plasmin. The settings on record: highest concentration tested (100 μM). Type of data set: biochemical. As for the experimental part:
as §1

In data set [5] the target is T2, Human plasma kallikrein (hPK) (human, UniProt P03952 20-638, limits assumed).
T2 construct: also called human PK; human kallikrein
Briefly: enzyme inhibition assay (fluorogenic substrate).

Data set [6] has as its target T2, Human plasma kallikrein (hPK). Briefly: enzyme inhibition assay (fluorogenic substrate). The source holds these as a separate data set.

Numbered stars: 1 amine (or outer) side, 2 acyl side, 3 side chain; on linkers, the order of the positions; unused ones are H or OH. Bridge positions count the residues as written; N and C are the ends. Square brackets hold non-standard residues; d marks the D form. Peptide text beside a SMILES is read from it. Arg(Me2a) = CN(C)C(=N)NCCC[C@H](N)C(=O)O; Arg(Me2s) = CN=C(NC)NCCC[C@H](N)C(=O)O; TBMB = c1c(C[*:1])cc(C[*:3])cc1C[*:2]

human plasma kallikrein (hPK), sequence (P03952 20-638): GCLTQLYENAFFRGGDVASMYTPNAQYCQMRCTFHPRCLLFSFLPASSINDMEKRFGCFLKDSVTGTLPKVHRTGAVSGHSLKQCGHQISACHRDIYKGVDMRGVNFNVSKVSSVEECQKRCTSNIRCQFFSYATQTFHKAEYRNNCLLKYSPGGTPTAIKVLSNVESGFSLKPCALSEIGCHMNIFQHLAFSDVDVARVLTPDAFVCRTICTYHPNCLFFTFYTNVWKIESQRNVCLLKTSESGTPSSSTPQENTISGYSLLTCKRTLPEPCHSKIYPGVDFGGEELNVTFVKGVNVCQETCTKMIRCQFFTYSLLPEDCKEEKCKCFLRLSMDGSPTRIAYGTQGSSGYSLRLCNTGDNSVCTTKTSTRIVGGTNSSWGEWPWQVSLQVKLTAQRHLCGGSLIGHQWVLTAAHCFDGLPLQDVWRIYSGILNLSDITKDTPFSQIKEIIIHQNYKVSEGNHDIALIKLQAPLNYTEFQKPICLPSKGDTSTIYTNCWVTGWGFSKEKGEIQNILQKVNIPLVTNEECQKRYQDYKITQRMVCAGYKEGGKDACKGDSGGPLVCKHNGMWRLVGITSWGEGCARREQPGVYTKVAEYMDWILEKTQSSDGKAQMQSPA
T2 sequence (P03952 20-638 limits assumed): as the sequence (P03952 20-638) above
rat plasma kallikrein (rPK), sequence (P14272 391-638 limits assumed): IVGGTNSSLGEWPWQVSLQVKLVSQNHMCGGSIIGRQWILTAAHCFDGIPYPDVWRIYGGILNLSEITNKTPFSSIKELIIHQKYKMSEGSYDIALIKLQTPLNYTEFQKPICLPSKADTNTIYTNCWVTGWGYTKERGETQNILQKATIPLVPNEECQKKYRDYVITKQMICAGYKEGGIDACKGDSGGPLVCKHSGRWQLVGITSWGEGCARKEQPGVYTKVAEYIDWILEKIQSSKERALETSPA
Human factor XIa (hfXIa), sequence (P03951 388-625 limits assumed): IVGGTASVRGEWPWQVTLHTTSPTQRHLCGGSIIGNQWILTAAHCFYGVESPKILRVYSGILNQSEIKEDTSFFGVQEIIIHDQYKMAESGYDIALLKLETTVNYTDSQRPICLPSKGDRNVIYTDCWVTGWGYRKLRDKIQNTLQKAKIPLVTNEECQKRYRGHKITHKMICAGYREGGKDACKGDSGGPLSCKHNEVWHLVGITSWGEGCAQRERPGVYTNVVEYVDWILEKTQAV
Human factor XIa (hfXIa), sequence (P03951 19-387 partner limits assumed): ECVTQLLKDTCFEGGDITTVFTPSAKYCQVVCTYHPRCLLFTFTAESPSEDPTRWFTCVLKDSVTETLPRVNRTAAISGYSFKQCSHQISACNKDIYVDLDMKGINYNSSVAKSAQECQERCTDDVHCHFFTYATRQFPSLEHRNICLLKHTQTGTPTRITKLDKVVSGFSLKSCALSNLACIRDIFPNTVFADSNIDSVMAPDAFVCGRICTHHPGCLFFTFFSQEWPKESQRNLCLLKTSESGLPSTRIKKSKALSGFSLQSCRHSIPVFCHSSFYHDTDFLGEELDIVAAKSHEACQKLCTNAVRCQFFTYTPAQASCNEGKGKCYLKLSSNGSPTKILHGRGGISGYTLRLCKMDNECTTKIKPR
Human plasmin, sequence (P00747 581-810 limits assumed): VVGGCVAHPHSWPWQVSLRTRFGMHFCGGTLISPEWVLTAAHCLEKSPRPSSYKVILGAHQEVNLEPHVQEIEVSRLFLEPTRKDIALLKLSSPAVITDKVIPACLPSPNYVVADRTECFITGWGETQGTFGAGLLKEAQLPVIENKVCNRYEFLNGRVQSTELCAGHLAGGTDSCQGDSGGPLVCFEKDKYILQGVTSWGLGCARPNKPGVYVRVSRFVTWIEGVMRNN
Human plasmin, sequence (P00747 97-580 partner limits assumed): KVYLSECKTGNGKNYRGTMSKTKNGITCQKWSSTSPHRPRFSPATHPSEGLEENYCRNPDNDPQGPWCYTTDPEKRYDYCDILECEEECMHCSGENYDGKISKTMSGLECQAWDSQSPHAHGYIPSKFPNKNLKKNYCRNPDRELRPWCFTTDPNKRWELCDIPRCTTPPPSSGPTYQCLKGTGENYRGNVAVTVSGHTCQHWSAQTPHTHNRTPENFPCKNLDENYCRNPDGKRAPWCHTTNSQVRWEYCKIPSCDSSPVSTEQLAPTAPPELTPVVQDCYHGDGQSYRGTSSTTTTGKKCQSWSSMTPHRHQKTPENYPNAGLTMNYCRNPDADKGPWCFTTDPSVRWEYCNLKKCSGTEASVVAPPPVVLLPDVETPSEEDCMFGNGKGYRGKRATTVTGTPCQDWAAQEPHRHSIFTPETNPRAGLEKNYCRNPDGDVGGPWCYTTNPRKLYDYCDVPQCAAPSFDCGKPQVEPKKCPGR

In turn, `CC(=O)N[C@H]1CSCc2cc3cc(c2)CSC[C@H](NC(=O)[C@H](CCCNC(=N)N)NC(=O)[C@H](C)NC(=O)[C@@H]2CCCN2C(=O)[C@H](Cc2c[nH]c4ccccc24)NC(=O)[C@H](CO)NC1=O)C(=O)N[C@@H](CC(C)C)C(=O)N[C@@H](Cc1c[nH]cn1)C(=O)N[C@@H](CCC(N)=O)C(=O)N[C@@H](CC(=O)O)C(=O)N[C@@H](CC(C)C)C(=O)N[C@H](C(N)=O)CSC3` [Ac-(06-34-18) wildtype] registered an inhibition constant (Ki) in data set [1] of 0.17 nM. The half-life at 5 uM in data set [2] is roughly 2 h. This molecule yielded an IC50 in [3] of 1.7 nM.

For `CC(C)C[C@@H]1NC(=O)[C@H](CC(N)=O)NC(=O)[C@H](CCC(N)=O)NC(=O)[C@H](Cc2c[nH]cn2)NC(=O)[C@H](CC(C)C)NC(=O)[C@@H]2CSCc3cc(cc(c3)CSC[C@@H](C(=O)N[C@@H](C)C(N)=O)NC1=O)CSC[C@H](NC(=O)[C@H](C)N)C(=O)N[C@@H]([C@@H](C)O)C(=O)N[C@@H](Cc1ccc(O)cc1)C(=O)N1CCC[C@H]1C(=O)N[C@@H](Cc1ccc(O)cc1)C(=O)N[C@@H](CCCCN)C(=O)N2` [Peptide 2A10] (H-ACTYPYKCLHQNLCA-NH2; linker 2-8-14 via TBMB), the inhibition constant Ki in data set [1] worked out at 4.98 nM. The “inhibition of hfXIa” value against Human factor XIa (hfXIa) is recorded as “did not inhibit”. The “inhibition of factor XIIa” value in [4] was “did not inhibit”. Also, on Human thrombin, the inhibition of thrombin result is recorded as “did not inhibit”.

`C[C@H](N)C(=O)N[C@H]1CSCc2cc3cc(c2)CSC[C@H](NC(=O)[C@H](CCCNC(=N)N)NC(=O)[C@H](C)NC(=O)[C@@H]2CCCN2C(=O)[C@H](Cc2c[nH]c4ccccc24)NC(=O)[C@H]([C@@H](C)O)NC1=O)C(=O)N[C@@H]([C@@H](C)O)C(=O)N[C@@H](Cc1c[nH]cn1)C(=O)N[C@@H](CCC(N)=O)C(=O)N[C@@H](CC(N)=O)C(=O)N[C@@H](Cc1c[nH]c2ccccc12)C(=O)N[C@H](C(=O)N[C@@H](C)C(N)=O)CSC3` [Peptide 06-09] (H-ACTWPARCTHQNWCA-NH2; linker 2-8-14 via TBMB) had a Ki in data set [1] of 1.2 nM. Moreover, the IC50 (in [4]; against Human thrombin) was greater than 10000 nM in each case.

In data set [1], `CC(C)C[C@@H]1NC(=O)[C@H](CC(=O)O)NC(=O)[C@H](CCC(N)=O)NC(=O)[C@H](Cc2c[nH]cn2)NC(=O)[C@H](CC(N)=O)NC(=O)[C@@H]2CSCc3cc(cc(c3)CSC[C@@H](C(=O)N[C@@H](C)C(N)=O)NC1=O)CSC[C@H](NC(=O)[C@H](C)N)C(=O)N[C@@H](CO)C(=O)N[C@@H](Cc1c[nH]c3ccccc13)C(=O)N1CCC[C@H]1C(=O)N[C@@H](C)C(=O)N[C@@H](CCCNC(=N)N)C(=O)N2` [Peptide 06-57] (H-ACSWPARCNHQDLCA-NH2; linker 2-8-14 via TBMB) gave a Ki of 0.4 nM. Moreover, the IC50 (in [4]; on Human thrombin) was greater than 10000 nM throughout.

`CC(C)C[C@@H]1NC(=O)[C@@H]2CSCc3cc(cc(c3)CSC[C@@H](C(=O)N[C@@H](C)C(N)=O)NC(=O)[C@@H]3CCCN3C(=O)[C@H](CCCNC(=N)N)NC(=O)[C@H](CCCNC(=N)N)NC(=O)[C@H](Cc3ccccc3)NC1=O)CSC[C@H](NC(=O)[C@H](C)N)C(=O)N[C@@H](C)C(=O)N[C@@H](CC(=O)O)C(=O)N1CCC[C@H]1C(=O)N[C@@H](Cc1c[nH]c3ccccc13)C(=O)N[C@@H](C)C(=O)N2` [06-63 T] (H-ACADPWACLFRRPCA-NH2; linker 2-8-14 via TBMB) came in with a Ki in data set [1] of 1280 nM. Further, the IC50 (in data set [4]; on Human thrombin) was greater than 10000 nM in each case.

In data set [1], `C[C@H](N)C(=O)N[C@H]1CSCc2cc3cc(c2)CSC[C@H](NC(=O)[C@H](CCCNC(=N)N)NC(=O)[C@H](C)NC(=O)[C@@H]2CCCN2C(=O)[C@H](Cc2c[nH]c4ccccc24)NC(=O)[C@H](CCCNC(=N)N)NC1=O)C(=O)N[C@@H]([C@@H](C)O)C(=O)N[C@@H](Cc1c[nH]cn1)C(=O)N[C@@H](CCC(N)=O)C(=O)N[C@@H](CC(N)=O)C(=O)N[C@@H](Cc1ccc(O)cc1)C(=O)N[C@H](C(=O)N[C@@H](C)C(N)=O)CSC3` [Peptide 06-54] (H-ACRWPARCTHQNYCA-NH2; linker 2-8-14 via TBMB) yielded an inhibition constant Ki of 0.49 nM. At Human factor XIa (hfXIa), the “inhibition of hfXIa” value is on record as “did not inhibit”. In addition, the inhibition of plasmin entry against Human plasmin is “did not inhibit”. Also, in data set [3], the affinity, expressed as Ki, was 7 nM. In data set [4], the IC50 is greater than 10000 nM and the “inhibition of factor XIIa” value was “did not inhibit”. Besides, at Human thrombin, the IC50 was greater than 10000 nM and the inhibition of thrombin entry is recorded as “did not inhibit”.

As for `CSCC[C@@H]1NC(=O)[C@H](CCC(=O)O)NC(=O)[C@H](CCC(N)=O)NC(=O)[C@H](Cc2c[nH]cn2)NC(=O)[C@H]([C@@H](C)O)NC(=O)[C@@H]2CSCc3cc(cc(c3)CSC[C@@H](C(=O)N[C@@H](C)C(N)=O)NC1=O)CSC[C@H](NC(=O)[C@H](C)N)C(=O)NCC(=O)N[C@@H](C(C)C)C(=O)N1CCC[C@H]1C(=O)N[C@@H](Cc1ccc(O)cc1)C(=O)N[C@@H](CCCNC(=N)N)C(=O)N2` [06-64 T] (H-ACGVPYRCTHQEMCA-NH2; linker 2-8-14 via TBMB), the Ki in [1] was 6.9 nM. Further, the IC50 (in data set [4]; against Human thrombin) was greater than 10000 nM throughout.

B1: Ac-(06-34-18) D-Ala4 (peptide)
peptide: Ac-CSWP[dA]RCLHQDLC-NH2
modifications: linker 1-7-13 via TBMB
SMILES: CC(=O)N[C@H]1CSCc2cc3cc(c2)CSC[C@H](NC(=O)[C@H](CCCNC(=N)N)NC(=O)[C@@H](C)NC(=O)[C@@H]2CCCN2C(=O)[C@H](Cc2c[nH]c4ccccc24)NC(=O)[C@H](CO)NC1=O)C(=O)N[C@@H](CC(C)C)C(=O)N[C@@H](Cc1c[nH]cn1)C(=O)N[C@@H](CCC(N)=O)C(=O)N[C@@H](CC(=O)O)C(=O)N[C@@H](CC(C)C)C(=O)N[C@H](C(N)=O)CSC3
With B1, in data set [5], the “fold reduction of affinity against Ac-06-34-18 wildtype” value was 7000 fold.

B2: Ac-(06-34-18) D-Trp2 (peptide)
peptide: Ac-CS[dW]PARCLHQDLC-NH2
modifications: linker 1-7-13 via TBMB
SMILES: CC(=O)N[C@H]1CSCc2cc3cc(c2)CSC[C@H](NC(=O)[C@H](CCCNC(=N)N)NC(=O)[C@H](C)NC(=O)[C@@H]2CCCN2C(=O)[C@@H](Cc2c[nH]c4ccccc24)NC(=O)[C@H](CO)NC1=O)C(=O)N[C@@H](CC(C)C)C(=O)N[C@@H](Cc1c[nH]cn1)C(=O)N[C@@H](CCC(N)=O)C(=O)N[C@@H](CC(=O)O)C(=O)N[C@@H](CC(C)C)C(=O)N[C@H](C(N)=O)CSC3
Turning to B2, in data set [5], the “fold loss in potency against Ac-06-34-18 wildtype” value stood at 45000 fold.

B3: Ac-(06-34-18) SDMA5 (peptide)
peptide: Ac-CSWPA[Arg(Me2s)]CLHQDLC-NH2
modifications: linker 1-7-13 via TBMB
SMILES: CN=C(NC)NCCC[C@@H]1NC(=O)[C@H](C)NC(=O)[C@@H]2CCCN2C(=O)[C@H](Cc2c[nH]c3ccccc23)NC(=O)[C@H](CO)NC(=O)[C@@H](NC(C)=O)CSCc2cc3cc(c2)CSC[C@H](NC1=O)C(=O)N[C@@H](CC(C)C)C(=O)N[C@@H](Cc1c[nH]cn1)C(=O)N[C@@H](CCC(N)=O)C(=O)N[C@@H](CC(=O)O)C(=O)N[C@@H](CC(C)C)C(=O)N[C@H](C(N)=O)CSC3
Turning to B3, affinity in data set [6] was put at a Ki of 1420 nM.

B4: Ac-(06-34-18) NDMA5 (peptide)
peptide: Ac-CSWPA[Arg(Me2a)]CLHQDLC-NH2
modifications: linker 1-7-13 via TBMB
SMILES: CC(=O)N[C@H]1CSCc2cc3cc(c2)CSC[C@H](NC(=O)[C@H](CCCNC(=N)N(C)C)NC(=O)[C@H](C)NC(=O)[C@@H]2CCCN2C(=O)[C@H](Cc2c[nH]c4ccccc24)NC(=O)[C@H](CO)NC1=O)C(=O)N[C@@H](CC(C)C)C(=O)N[C@@H](Cc1c[nH]cn1)C(=O)N[C@@H](CCC(N)=O)C(=O)N[C@@H](CC(=O)O)C(=O)N[C@@H](CC(C)C)C(=O)N[C@H](C(N)=O)CSC3
With B4, the affinity in [6] corresponds to a Ki of 510 nM.

In general, Ki refers to a measure of affinity in units of concentration, obtained from inhibition or displacement. The low end stands for tighter binding, the high end for weaker binding. A word on the IC50: it is the concentration that gives 50% inhibition. Higher therefore signals lower potency.
